Source: patent US8999995B2, “Isotopically enriched arylsulfonamide CCR3 antagonists” (Axikin Pharmaceuticals, Inc., priority 2010, dated 2015)
Like-named read-outs stand apart in the source and are kept apart here.

How the values were obtained:
CCR3 receptor = target: T1, CCR3 receptor (UniProt P51677); test: CCR3 receptor binding assay ([125I]-labeled human eotaxin/CCL11 displacement on cells); conditions: 0.1 nM [125I]-labeled human eotaxin/CCL11, 60 min at room temperature
T1 sequence (P51677 1-355): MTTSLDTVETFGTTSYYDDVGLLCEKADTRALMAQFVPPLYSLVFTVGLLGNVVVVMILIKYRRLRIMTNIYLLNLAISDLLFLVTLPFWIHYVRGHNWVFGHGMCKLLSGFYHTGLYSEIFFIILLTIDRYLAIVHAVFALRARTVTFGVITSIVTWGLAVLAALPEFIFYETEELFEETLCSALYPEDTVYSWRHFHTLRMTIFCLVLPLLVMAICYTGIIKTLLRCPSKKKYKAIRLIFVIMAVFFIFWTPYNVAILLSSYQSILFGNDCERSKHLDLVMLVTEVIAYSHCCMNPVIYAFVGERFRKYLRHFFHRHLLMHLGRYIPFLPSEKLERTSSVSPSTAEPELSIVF
Procedure: Cells were washed once with PBS and resuspended in a binding buffer (25 mM HEPES pH 7.6, 5 mM MgCl2, 1 mM CaCl2, 0.5% BSA, 0.1% NaN3). […] of cell suspension (2×10^5 cells/well) and 0.1 nM [^125I]-labeled human eotaxin/CCL11 (2000 Ci/mmol specific activity) were mixed in a 96-well U-bottom polypropylene plate, and incubated for 60 min at room temperature for the binding reaction. The cell suspension was then transferred to a filtration plate (#MAFB, Millipore), and washed 3 times with the binding buffer containing 0.5 M NaCl, scintillant added, and the radioactivity was counted on a TopCount (Packard). For the determination of non-specific binding, the cell suspension and [^125I]-labeled human eotaxin/CCL11 were incubated in the presence of 500 nM of unlabeled human eotaxin/CCL11. See, Iino et al., “Molecular cloning and functional characterization of cynomolgus monkey (Macaca fascicularis) CC chemokine receptor, CCR3,” Cytokine 2002, 19, 276-286.

[1] = Pharmacokinetic studies in male CD1 mice (PO and IV dosing, plasma by HPLC and MS); format: in vivo, mouse; conditions: for Cmax / AUC(0-inf): male, CD1, mouse
Procedure: Pharmacokinetic properties of compounds A1 and A2 were determined using 144 male CD1 mice, each approximately 25 g. Animals were acclimated for 2-3 days prior to study. Body weights of animals were measured for randomization. Animals were randomized into groups of 3 mice by body weights. Compounds A1 and A2 were provided at 2 mg/mL for oral dosing and 0.2 mg/mL for intravenous dosing. Each mouse received 100 μL of a test compound (or a body weight justified dose (5 mL/kg) via PO or IV on dosing days. Approximately 1.0 mL of the whole blood was collected for each animal via cardiac puncture at each time points. The blood was collected into lithium heparin tubes, processed to plasma, and snap frozen in dry ice. Plasma samples were stored at −80° C. before analysis. The samples were further analyzed by HPLC and MS.

Q: For `[2H]c1c([2H])c(Sc2cc(Cl)cc(Cl)c2)c(S(=O)(=O)N2CCN(C3CCCC3)CC2)c([2H])c1C#N` [Compound A1], which Ki (CCR3 receptor) is on record?
A: 5.4 nM

Q: What about the Cmax ([1]; oral, 10 mg/kg, 2 mg/mL oral, 0.2 mg/mL intravenous dosing, 5 mL/kg, read-out: Cmax) of the same compound?
A: 149 ng/mL

Q: What about the AUC(0-inf) ([1]; oral, 10 mg/kg, AUCinf,norm, dose-normalised, heading: AUCinf,norm) of the same compound?
A: 106 ng·h/mL

Q: And the Cmax ([1]; oral, 10 mg/kg, dose-normalised, read-out: Cmax,norm)?
A: 14.9 ng/mL

Q: What about the AUC(0-inf) ([1]; oral, 10 mg/kg, read-out: AUCinf) of the same compound?
A: 1060 ng·h/mL

Q: What about the MRT ([1]; mouse) of the same compound?
A: 6.9 h

Q: And the half-life ([1]; mouse)?
A: 2.51 h

Q: And the bioavailability ([1]; mouse, PO versus IV)?
A: 31.8%

Q: And the Tmax ([1]; mouse, oral, 10 mg/kg)?
A: 0.5 h
